Several values for one entry are separate records, joined by “and”; a condition that tells them apart may be missing. Identical values can stand only once.

The text below walks through data of patent EP2642290A1, “Glatiramer acetate human monocytic cell line-based potency assay” (Synthon BV, priority 2012, dated 2013).

Assay [1] deals with THP-1 cells. Nature of the assay: Human monocytic cell line-based potency assay: sIL-1Ra expression (ELISA) in THP-1 cells stimulated with PMA and LPS and exposed to glatiramer acetate. The settings on record: THP-1 cells treated with PMA alone or LPS alone instead of the combination. A general note: An ELISA detects its analyte on a solid surface through an enzyme-linked reagent.

Assay [2] has as its system THP-1 cells. The description is as above. The protocol:
Human monocytic cells are brought into a suitable medium, e.g. RPMI 1640 medium, and are stimulated with an effective amount of PMA and LPS, contacted with GA (0-250 μg/ml) and the effect on the expression of a monocyte anti-inflammatory cytokine, such as sIL-1Ra, is measured. […] Dose-response curves are generated by GA activation of monocytic cells and EC50 values are calculated using a non-linear four-parameter logistic model on semi-log transformed data, as described in the draft USP chapter <1034> on analysis of biological assays.
• THP-1 cells are harvested and centrifugated at 200g for 5 minutes; • Resuspend the pellet in 10 ml fresh pre-warmed RPMI-1640+10% FBS+2mM L-Glutamine; • Take a sample for cell counting; • After cell count adjust the cell density to 5 x 10^5 cells/ml and add 100 μl of the THP-1 cell suspension to the wells of a 96-wellsplate (Corning Costar #3596); • Fill the boundary wells of the plate with CGM and place the plate temporally into a humidified incubator at 37 ± 1 °C and 5.0 ± 1% CO2.
• In the dilution plate prepare the glatiramer acetate dilution series. The stock concentration is 20 mg/ml, which needs to be diluted in a 96-wellsplate to a working stock concentration of 1.2 mg/ml for the highest dilution on the dilution plate; • Pipette 75 μl RPMI-1640+10% FBS in column 2-8 (row B-G) of the dilution plate and pipette 235 μl RPMI-1640+10% FBS in column 9 (row B-G). Note: Other wells of the dilution 96-wellsplate remain unused; • Add 15 μl of reference glatiramer acetate and the test sample of glatiramer acetate (20 mg/ml) into column 9 (row B-G) of the dilution plate, giving a new concentration of 1.2 mg/ml; • Serially dilute 150 μl down, from column 9 to 2. Mix at each step by pipetting up and down 5 times; • Add 50 μl of the LPS/PMA working solution to the cell plate, with exception of the boundary wells.The final concentrations are 25 ng/ml LPS and 5 ng/ml PMA; • Add 50 μl of the glatiramer acetate dilutions to the plate containing the cells and the LPS and PMA working solution. The final dose-range of glatiramer acetate is between 12.5 and 250 μg/ml; • Incubate cells for 72 hours at 37°C in an incubator with 5% CO2, 93% humidity.
• After 72 hours of incubation centrifuge the 96-well plate at 200g for 5 minutes. • Transfer 150 μl of the cell-free supernatant/well to a storage plate. • Supernatant of the samples will be used for analysis by IL-1Ra/Il-1F3 ELISA. • sIL-1Ra is determined using the sIL-1Ra ELISA kit from Quantikine, R&D, Minneapolis, MN (Cat # DRAOOB) following the manufacturer's instructions. The remainder of the supernatant is stored in a closed storage plate at -80°C.
Data on sIL-1Ra concentration are analyzed for relative potency as described in draft USP chapter <1034> section 3.4 on nonlinear models for quantitative responses. The software package GraphPad Prism (5.x) is used for fitting to a nonlinear model to the data: • sIL-1Ra data (in pg/ml) are plotted against the log transformed glatiramer acetate concentration (in log μg/ml); • A four-parameter logistic model is constructed to fit the dose response curves of the Reference (Ref) and the test batch (TA). […]

glatiramer acetate: the GA-induced cytokine expression entry in assay [1] is “neither PMA nor LPS treatment of THP-1 cells alone results in GA-induced cytokine expression”. For the same substance, the Bottom in assay [2] (bottom asymptote of constrained four-parameter logistic fit of sIL-1Ra response (sIL-1Ra data in pg/ml), 5 ng/ml PMA and 25 ng/ml LPS, 72 hours, four independent curves A-D of the same material, common value) was -4031. In assay [2] (relative to curve A, arbitrarily set at 100%, all curves are 100% samples of the same material, curves A-D), the “Relative potency (%)” value is 100.0% and 128.5% and 118.5% and 107.7%. The EC50 in assay [2] (sIL-1Ra response, glatiramer acetate concentration in μg/ml, 5 ng/ml PMA and 25 ng/ml LPS, 72 hours, four independent curves A-D of the same material, in µg/mL) is 42.05 and 54.02 and 49.84 and 45.28. The substance also registered a Slope in assay [2] (slope of constrained four-parameter logistic fit of sIL-1Ra response, 5 ng/ml PMA and 25 ng/ml LPS, curves A-D, common value) of 3.306. The Top in assay [2] (top asymptote of constrained four-parameter logistic fit of sIL-1Ra response (sIL-1Ra data in pg/ml), 5 ng/ml PMA and 25 ng/ml LPS, 72 hours, curves A-D, common value) was 53602.
